Reference: ChEMBL document CHEMBL1201862, “PubChem BioAssay data set” (2004)
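1) Cells in 96-well plates. 2) Compound, 48 h, 5 concentrations. 3) Linear interpolation between surrounding doses. 4) Unreached endpoint = highest concentration. GI50: concentration for 50% inhibition of growth.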 Active and inactive are the calls of the source. No stated cut-off is given here; in the data, active = GI50 up to about 1.1 µM and inactive = higher.

Tests used:
Assay in all cases: NCI-60 cell line screen, 48 h
ACHN = test system: ACHN
BT-549 = test system: BT-549
CCRF-CEM = test system: CCRF-CEM
DU-145 = test system: DU-145
HCC 2998 = test system: HCC 2998
HOP-62 = test system: HOP-62
HT-29 = test system: HT-29
KM12 = test system: KM12
MDA-MB-435 = test system: MDA-MB-435
NCI/ADR-RES = test system: NCI/ADR-RES
OVCAR-8 = test system: OVCAR-8
PC-3 = test system: PC-3
RXF 393 = test system: RXF 393
SF-268 = test system: SF-268
SF-295 = test system: SF-295
SK-MEL-28 = test system: SK-MEL-28
UACC-257 = test system: UACC-257
NCI-H522 = test system: NCI-H522
SK-MEL-2 = test system: SK-MEL-2

| SMILES | GI50 (ACHN) | GI50 (BT-549) | GI50 (CCRF-CEM) | GI50 (DU-145) | GI50 (HCC 2998) | GI50 (HOP-62) | GI50 (HT-29) | GI50 (KM12) | GI50 (MDA-MB-435) | GI50 (NCI/ADR-RES) | GI50 (OVCAR-8) | GI50 (PC-3) | GI50 (RXF 393) | GI50 (SF-268) | GI50 (SF-295) | GI50 (SK-MEL-28) | GI50 (UACC-257) | GI50 (NCI-H522) | GI50 (SK-MEL-2) |
| --- | --- | --- | --- | --- | --- | --- | --- | --- | --- | --- | --- | --- | --- | --- | --- | --- | --- | --- | --- |
| Cc1c2c3ccccc3nc-2n(C)c2ccccc12 | 0.611 µM (active) | 3.71 µM (inactive) | 0.724 µM (active) | 3.67 µM (inactive) | 2.64 µM (inactive) | 3.78 µM (inactive) | 1.34 µM (inactive) | 1.15 µM (inactive) | 2.9 µM (inactive) | 2.01 µM (inactive) | 1.69 µM (inactive) | 2.17 µM (inactive) | 1.99 µM (inactive) | 3.83 µM (inactive) | 3.7 µM (inactive) | 3.42 µM (inactive) | 2.11 µM (inactive) | – | – |
| Oc1cc2c(cc1C(c1ccc3c(c1)OCO3)N1CCN(C(c3ccc4c(c3)OCO4)c3cc4c(cc3O)OCO4)CC1)OCO2 (centres undefined) | 13.7 µM (inactive) | 13.7 µM (inactive) | – | 20.3 µM (inactive) | – | 21.7 µM (inactive) | 5.26 µM (inactive) | 16.7 µM (inactive) | 17.7 µM (inactive) | 19.2 µM (inactive) | 14 µM (inactive) | 28.9 µM (inactive) | 26.2 µM (inactive) | 18 µM (inactive) | 16.7 µM (inactive) | 2.83 µM (inactive) | 17.6 µM (inactive) | 14.2 µM (inactive) | 19.5 µM (inactive) |
| CC1(C)CC(=O)C(Cc2ccccc2)(Cc2ccccc2)C(=O)C1 | > 100 µM (inactive) | > 100 µM (inactive) | > 100 µM (inactive) | > 100 µM (inactive) | > 100 µM (inactive) | > 100 µM (inactive) | > 100 µM (inactive) | > 100 µM (inactive) | – | > 100 µM (inactive) | > 100 µM (inactive) | > 100 µM (inactive) | 33.8 µM (inactive) | > 100 µM (inactive) | > 100 µM (inactive) | > 100 µM (inactive) | > 100 µM (inactive) | > 100 µM (inactive) | > 100 µM (inactive) |
| OC1OC(c2ccco2)C(F)(F)C(F)(F)C1(F)F (centres undefined) | > 100 µM (inactive) | > 100 µM (inactive) | 21.9 µM (inactive) | > 100 µM (inactive) | – | > 100 µM (inactive) | 23.3 µM (inactive) | 19.9 µM (inactive) | 43.6 µM (inactive) | 61.5 µM (inactive) | > 100 µM (inactive) | > 100 µM (inactive) | > 100 µM (inactive) | 71.3 µM (inactive) | 68.7 µM (inactive) | > 100 µM (inactive) | > 100 µM (inactive) | – | > 100 µM (inactive) |
| Cc1nc(O)nc(N(CCO)/N=C/c2ccc(Cl)cc2)c1C(=O)Nc1ccc(Cl)cc1 | > 100 µM (inactive) | – | > 100 µM (inactive) | > 100 µM (inactive) | > 100 µM (inactive) | 59.7 µM (inactive) | > 100 µM (inactive) | > 100 µM (inactive) | > 100 µM (inactive) | > 100 µM (inactive) | 99.5 µM (inactive) | > 100 µM (inactive) | 24.7 µM (inactive) | 89.7 µM (inactive) | > 100 µM (inactive) | > 100 µM (inactive) | > 100 µM (inactive) | > 100 µM (inactive) | 34.4 µM (inactive) |
| CC12CCC(C/C1=N\NC(N)=O)C2(C)C (centres undefined) | > 100 µM (inactive) | > 100 µM (inactive) | > 100 µM (inactive) | > 100 µM (inactive) | – | > 100 µM (inactive) | > 100 µM (inactive) | > 100 µM (inactive) | > 100 µM (inactive) | > 100 µM (inactive) | > 100 µM (inactive) | > 100 µM (inactive) | – | > 100 µM (inactive) | > 100 µM (inactive) | > 100 µM (inactive) | > 100 µM (inactive) | > 100 µM (inactive) | > 100 µM (inactive) |
| N#CCCN(CCC#N)c1ccc(/C=C2\N=C(c3ccccc3)N(NC(N)=S)C2=O)cc1 | > 100 µM (inactive) | > 100 µM (inactive) | > 100 µM (inactive) | > 100 µM (inactive) | – | > 100 µM (inactive) | > 100 µM (inactive) | 12.9 µM (inactive) | 41.4 µM (inactive) | > 100 µM (inactive) | > 100 µM (inactive) | > 100 µM (inactive) | > 100 µM (inactive) | > 100 µM (inactive) | > 100 µM (inactive) | > 100 µM (inactive) | > 100 µM (inactive) | – | > 100 µM (inactive) |
| O=c1[nH]c(=O)c2c([nH]1)[nH]c1ccc(Br)cc12 | 70 µM (inactive) | > 100 µM (inactive) | 82.2 µM (inactive) | > 100 µM (inactive) | 28 µM (inactive) | > 100 µM (inactive) | > 100 µM (inactive) | 21.8 µM (inactive) | > 100 µM (inactive) | > 100 µM (inactive) | > 100 µM (inactive) | – | > 100 µM (inactive) | 97.1 µM (inactive) | > 100 µM (inactive) | – | > 100 µM (inactive) | > 100 µM (inactive) | > 100 µM (inactive) |
| C[C@]12CCC(=O)C=C1CC[C@@H]1C2CC[C@]2(C)Nc3c(ncn3-c3ccc(F)cc3)CC12 (some centres undefined) | 20.8 µM (inactive) | 20.3 µM (inactive) | 21 µM (inactive) | 23.7 µM (inactive) | 20.2 µM (inactive) | 37.8 µM (inactive) | 18.9 µM (inactive) | 17.2 µM (inactive) | 12.6 µM (inactive) | – | 35.2 µM (inactive) | 12 µM (inactive) | 5.56 µM (inactive) | 19.1 µM (inactive) | 15.3 µM (inactive) | 29.3 µM (inactive) | 17.8 µM (inactive) | 15 µM (inactive) | – |
| Fc1sc2c(c1F)C1CCC2C1 (centres undefined) | > 100 µM (inactive) | – | – | 85.7 µM (inactive) | > 100 µM (inactive) | > 100 µM (inactive) | 68.9 µM (inactive) | > 100 µM (inactive) | 56.4 µM (inactive) | 47.1 µM (inactive) | > 100 µM (inactive) | 75.7 µM (inactive) | 88.1 µM (inactive) | > 100 µM (inactive) | > 100 µM (inactive) | > 100 µM (inactive) | 40.9 µM (inactive) | > 100 µM (inactive) | > 100 µM (inactive) |
| COc1cc2c[n+]3c4c(c2c(OC)c1OC)CCCC4CC3 (centres undefined) | > 100 µM (inactive) | – | 35.3 µM (inactive) | > 100 µM (inactive) | 98.4 µM (inactive) | > 100 µM (inactive) | > 100 µM (inactive) | 30.1 µM (inactive) | > 100 µM (inactive) | > 100 µM (inactive) | – | > 100 µM (inactive) | > 100 µM (inactive) | – | > 100 µM (inactive) | > 100 µM (inactive) | 35.6 µM (inactive) | 30.8 µM (inactive) | > 100 µM (inactive) |
| COC(=O)[C@H]1COC(=O)N1 | > 100 µM (inactive) | > 100 µM (inactive) | > 100 µM (inactive) | > 100 µM (inactive) | > 100 µM (inactive) | > 100 µM (inactive) | > 100 µM (inactive) | > 100 µM (inactive) | > 100 µM (inactive) | > 100 µM (inactive) | > 100 µM (inactive) | – | > 100 µM (inactive) | > 100 µM (inactive) | > 100 µM (inactive) | > 100 µM (inactive) | > 100 µM (inactive) | > 100 µM (inactive) | > 100 µM (inactive) |
| CC(Br)C(=O)c1ccc2cc(Br)c3ccccc3c2c1 (centres undefined) | 17.6 µM (inactive) | 15.1 µM (inactive) | 2.45 µM (inactive) | 16.5 µM (inactive) | 15.7 µM (inactive) | 17.2 µM (inactive) | 17.1 µM (inactive) | 17.2 µM (inactive) | 14.5 µM (inactive) | 18 µM (inactive) | 14 µM (inactive) | – | 15.4 µM (inactive) | 16.3 µM (inactive) | 16.4 µM (inactive) | 18.6 µM (inactive) | 16.9 µM (inactive) | 3.97 µM (inactive) | 13.2 µM (inactive) |
| [BH3-][P+]1(CC[P@@+]([BH3-])(c2ccccc2)c2ccccc2OC)[C@@H](C)[C@@H](O)[C@H](O)[C@@H]1C (some centres undefined) | 17.6 µM (inactive) | – | 24.2 µM (inactive) | 17.3 µM (inactive) | – | 16.9 µM (inactive) | 22.6 µM (inactive) | 15.8 µM (inactive) | 16.7 µM (inactive) | 16.5 µM (inactive) | 17.5 µM (inactive) | 15 µM (inactive) | 16.4 µM (inactive) | 17.2 µM (inactive) | 15.8 µM (inactive) | 17.9 µM (inactive) | 4.19 µM (inactive) | 12.4 µM (inactive) | 15.7 µM (inactive) |
| O=c1c(C(c2cnc3ccccc3c2)c2c(O)oc3ccccc3c2=O)c(O)oc2ccccc12 | – | 20.7 µM (inactive) | 55.1 µM (inactive) | > 100 µM (inactive) | – | 46.5 µM (inactive) | 33.4 µM (inactive) | 37.4 µM (inactive) | 36.3 µM (inactive) | > 100 µM (inactive) | 33 µM (inactive) | 48.5 µM (inactive) | – | 23.8 µM (inactive) | – | 25.9 µM (inactive) | 37.3 µM (inactive) | 36.1 µM (inactive) | 47.2 µM (inactive) |
| Cn1c(=O)c2nc[nH]c2n(C)c1=O [THEOPHYLLINE] | > 100 µM (inactive) | – | > 100 µM (inactive) | > 100 µM (inactive) | > 100 µM (inactive) | > 100 µM (inactive) | – | > 100 µM (inactive) | – | > 100 µM (inactive) | > 100 µM (inactive) | > 100 µM (inactive) | – | – | – | > 100 µM (inactive) | > 100 µM (inactive) | > 100 µM (inactive) | > 100 µM (inactive) |
